In patent US20140219925A1, “POLYMER PARTICLES OR NANO-VECTORS AND USE THEREOF AS A DRUG AND/OR DIAGNOSTIC AGENT” (INSERM (Institut National de la Sante et de la Recherche …, priority 2011, published 2014):
Values joined by “and” are separate entries in the source; they are usually repeats but may differ in a detail not shown here. Equal values may be shown once. Read-outs that look alike come from different tables or passages of the source.

Assays:
HDAC = assay: BRET measurement of histone acetylation / HDAC inhibition in Met-5A cells; type: cell-based
Description: Cellular model: Met-5A cells (ATCC)
Seed 200000 cells per well of a 6-well plate in 2 ml of RPMI 10% FCS penicillin/streptomycin and glutamine.
D1: Transfection: phRluc-C1 BrD+pEYFP-C1 histone H3
600 ng of phRluc-C1 BrD+1500 ng of pEYFP-C1 histone H3 in 100 μl of crude RPMI.
After 6 h at 37° C., begin the treatments by adding 20 μl of treatment medium (RPMI 10% FCS penicillin, streptomycin and L-glutamine) comprising the test compounds at a ten-fold concentration.
Add 5 μl per well of coelenterazine h (Interchim) at 25 μM.
Parameters: Reading at 485 nm for 1 second and then reading at 530 nm for 1 second.
((value 530 nm phRluc-C1 BrD+pEYFP-C1 histone H3/value 480 nm phRluc-C1 BrD+pEYFP-C1 histone H3)-(value 530 nm phRluc-C1 BrD/value 480 nm phRluc-C1 BrD))×1000
Unit: milli BRET unit (mBu)
These experiments make it possible to evaluate the release of the HDAC inhibitors (HDI) in the live cells.

[1] = Hydrolysis in buffer solutions, release monitored by HPLC; type: physicochemical; conditions: for half-life at 1 mg/ml: 1 mg/ml in acetonitrile 80% / buffer solution 20%
Description: The compound is put into an acid medium (citrate buffer for pH 4.3 and […] buffer for pH 7.3) and release of CI-994 is monitored by HPLC. The hydrolysis of the compounds of the invention was carried out in buffer solutions (citrate buffer for pH 4.3 and […] for pH 7.3) at pH=4.3 and at pH=7.3. The concentration of the samples is 1 mg/ml in the solution: acetonitrile at 80% and buffer solution at 20%. […] In some cases the measurements were prolonged for 2 or 3 weeks, or even a month.

Question: For `CC(=O)Nc1ccc(C(=O)Nc2ccccc2N)cc1` [CI-994, reference compound], which EC50 (HDAC; read-out: EC50 (BRET), average value±standard deviation of three independent experiments) is on record?
Answer: Its EC50 is 0.86 ± 1.14 µM.

Question: For `C#CCOCCOCCOCCOCCn1cc(C(Nc2ccccc2NC(=O)c2ccc(NC(C)=O)cc2)(c2ccccc2)c2ccccc2)nn1` [Compound 9c, N-(2-((1-(3,6,9,12-tetraoxapentadec-14-ynyl)-1H-1,2,3-triazol-4-yl)diphenylmethylamino)phenyl)-4-acetamidobenzamide], which EC50 (HDAC; average value±standard deviation of three independent experiments, read-out: EC50 (BRET)) is on record?
Answer: Its EC50 is 7.17 µM and 6.2 µM.

Question: And the half-life at 1 mg/ml ([1]; pH 4.3 citrate buffer, read-out: t1/2 pH 4.3)?
Answer: Its half-life at 1 mg/ml is 0.5 h.

Question: What about the half-life at 1 mg/ml ([1]; pH 7.3 Trisma buffer, read-out: t1/2 pH 7.3 (converted)) of the same molecule?
Answer: The half-life at 1 mg/ml was 86.4 h.

Question: With “N^1-((1-(3,6,9,12-tetraoxapentadec-14-ynyl)-1H-1,2,3-triazol-4-yl)bis(4-fluorophenyl)methoxy)phenyl [Compound 21g]” as the molecule, how does the time without hydrolysis ([1]; pH 7.3) read?
Answer: The time without hydrolysis was “at least 1 month”.
